Here are results for twelve compounds from patent US7022699B2, “Cyclohexenyl phenyl diazepines vasopressin and oxytocin receptor modulators” (Wyeth, priority 2001, dated 2006).

Structures are written as SMILES.

The target of the assay is T1, human vasopressin V2 receptor subtype (Homo sapiens, UniProt P30518).
T1 construct: host or cells: CHO cells, stably transfected (pZeoSV vector); membranes
T1 sequence (P30518 whole entry): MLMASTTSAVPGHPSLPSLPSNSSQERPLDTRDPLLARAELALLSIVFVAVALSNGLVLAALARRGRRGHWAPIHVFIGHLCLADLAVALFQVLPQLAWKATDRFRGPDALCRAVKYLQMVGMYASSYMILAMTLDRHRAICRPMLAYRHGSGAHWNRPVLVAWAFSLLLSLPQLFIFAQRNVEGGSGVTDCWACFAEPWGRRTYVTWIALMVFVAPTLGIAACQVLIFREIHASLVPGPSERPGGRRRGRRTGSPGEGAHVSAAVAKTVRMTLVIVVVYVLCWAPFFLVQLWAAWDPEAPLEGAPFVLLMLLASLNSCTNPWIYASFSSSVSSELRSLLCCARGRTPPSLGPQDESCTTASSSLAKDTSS
The experiment in a line: Vasopressin binding in CHO cell membranes expressing human vasopressin V2 subtype receptors ([3H]arginine vasopressin). Conditions: 100 nM, values without parentheses. An excerpt:
Vasopressin Binding in Chinese Hamster Ovary Cell Membranes Expressing Human Vasopressin V2 Subtype Receptors
Chinese Hamster Ovary (CHO) cells stably transfected with the human V2 subtype receptors were obtained from M. Thibonnier, Case Western Reserve University School of Medicine, Cleveland, Ohio.
A. Passaging and Amplification of Cells:
CHO cells transfected with the human vasopressin V2 subtype receptors obtained from M. Thibonnier (pZeoSV vector) are allowed to grow to confluency (approx. >90%) in T-150 flasks under sterile conditions, in a cell culture medium of F-12 Nutrient Mixture (HAM) with L-glutamine (Gibco Cat. #11765-054) containing 15 mM HEPES (Gibco Cat. #15630-080), 1% antibiotic/antimycotic (add 5 mL 100×, Gibco Cat. #15240-062 per 500 mL F-12), 250 μg/mL Zeocin (add 1.25 mL of 100 mg/mL Invitrogen R-250-01 per 500 mL F-12) and 10% Fetal Bovine Serum (Qualified, heat inactivated, Gibco Cat. #16140-063). The medium is removed by aspiration and the cells washed with 10 mL of Hank's Balanced Salt solution (Gibco Cat. #14175-095). The salt solution is removed by aspiration and the cells trypsinized with 5 mL of trypsin-EDTA (0.05% trypsin, 0.53 mM EDTA-4Na, Gibco Cat. #25300-070) for 1 min. The trypsin is removed by aspiration and the cells dislodged by tapping. Cell Culture medium (e.g. 30 mL for 1:30 split) is immediately added and mixed well to inactivate trypsin. 1 mL of detached cells is added to new culture flasks containing fresh Cell Culture medium (e.g. into 25 mL per T-150 flask), and mixed gently. The cells are incubated at 37° C. in 5% CO2. The medium is changed at 3 to 4 day interval (or as appropriate). The cells grow to confluency (approx. >75%–95%) within 7–8 days. All steps are done under sterile conditions. B. Membrane Preparation: The cells are washed twice gently with Hank's Balanced Salt solution (e.g. use 10 mL per T-150 flask). The excess solution is removed and the cells bathed for 15–30 min. in an enzyme-free Cell Dissociation Buffer (e.g. use 8 mL Hank's Based, Gibco Cat. # 13150-016 per T-150 flask) until cells are loosened. The contents are transferred to centrifuge tubes (50 mL size) kept in ice bath. All subsequent steps are done at 4° C. The tubes are centrifuged at 300×g for 15 min (1380 rpm on SORVAL, Model RT6000D, using rotor for 50 mL tubes). The supernatant is discarded and the cells suspended in homogeneizing buffer (10 mM Tris-HCl containing 0.25 M sucrose and 1 mM EDTA, pH 7.4) ensuring that the volume of the buffer is about ten times the volume of the cell pellet. The cells are pooled into a centrifuge tube (50 mL) and homogenized with Polytron at setting 6 for 10 sec. The homogenate is transferred into a Potter-Elvjehm homogeneizer and homogenized with 3 strokes. The homogenate is centrifuged at 1500×g for 60 min at 4° C. (3100 rpm using SORVAL, model RT6000D, using rotor for 50 mL tubes). The pellet is discarded. The supernatant is centrifuged at 100,000×g for 60 min. at 4° C. (Beckman L8-80M ultracentrifuge; spin at 37,500 rpm with rotor type 70 Ti for 50 mL tubes; 38,000 rpm with type 80Ti for 15 mL tubes; or 35,800 rpm with rotor type 45Ti). The supernantant is discarded and the pellet suspended in 3 to 4 mL of Tris buffer (50 mM TRIS-HCl, pH 7.4). The protein content is estimated by the Bradford or Lowry method. The volume of the membrane suspension is adjusted with the membrane buffer (50 mM Tris-HCl containing 0.1% BSA and 0.1 mM PMSF) to give 3.0 mg/mL (or as appropriate) of protein. The membranes are aliquoted and stored at −70° C. C. Radioligand Binding Assay:
In wells of a 96-well format microtiter plate, is added 90, 110 or 130 μL (to make up a final volume of 200 μL) of assay buffer containing 50 mM of Tris-HCl (pH 7.4), […], 1 mg % aprotinin, 1 mg % leupeptin, 2 mg % 1,10-phenanthroline, 10 mg % trypsin inhibitor, and 0.1 mM PMSF. The inhibitors are added on the day of the experiment. […]
Regarding `CC1(C)C=C(c2ccc(C(=O)N3Cc4cccn4Cc4ccccc43)cc2)CC(C)(C)C1` [Example 23, (10,11-Dihydro-5H-pyrrolo[2,1-c][1,4]benzodiazepin-10-yl)-[4-(3,3,5,5-tetramethyl-cyclohex-1-en-1-yl)-phenyl]-methanone], the inhibition at 0.1 µM came out at 18%.
`O=C1C=C(c2ccc(C(=O)N3Cc4cccn4Cc4ccccc43)cc2)CCC1` [Example 24, 3-[4-(10,11-Dihydro-5H-pyrrolo[2,1-c][1,4]benzodiazepine-10-carbonyl)-phenyl]-cyclohex-2-en-1-one]: the inhibition at 0.1 µM is 29%.
The figure for `O=C(c1ccc(C2=CC(O)CCC2)cc1)N1Cc2cccn2Cc2ccccc21` (stereo not drawn) [Example 25, (10,11-Dihydro-5H-pyrrolo[2,1-c][1,4]benzodiazepin-10-yl)-[4-(3-hydroxy-cyclohex-1-en-1-yl)-phenyl]-methanone] is 39%; for `CC1=C(c2ccc(C(=O)N3Cc4cccn4Cc4ccccc43)cc2)CCCC1=O` [Example 26, 3-[4-(10,11-Dihydro-5H-pyrrolo[2,1-c][1,4]benzodiazepine-10-carbonyl)-phenyl]-2-methyl-cyclohex-2-en-1-one] it is 58%; for `CC1=C(c2ccc(C(=O)N3Cc4cccn4Cc4ccccc43)cc2)CCCC1O` (stereo not drawn) [Example 27, (10,11-Dihydro-5H-pyrrolo[2,1-c][1,4]benzodiazepin-10-yl)-[4-(3-hydroxy-2-methyl-cyclohex-1-en-1-yl)-phenyl]-methanone] it is 58%.
The figure for `Cc1cc(C(=O)N2Cc3cccn3Cc3ccccc32)ccc1C1=CCCCC1C` (stereo not drawn) [Example 29, (10,11-Dihydro-5H-pyrrolo[2,1-c][1,4]benzodiazepin-10-yl)-[3-methyl-4-(6-methyl-cyclohex-1-en-1-yl)-phenyl]-methanone] is 13%; for `Cc1cc(C(=O)N2Cc3cccn3Cc3ccccc32)ccc1C1=CCCCC1(C)C` [Example 30, (10,11-Dihydro-5H-pyrrolo[2,1-c][1,4]benzodiazepin-10-yl)-[4-(6,6-dimethyl-cyclohex-1-en-1-yl)-3-methyl-phenyl]-methanone] it is 13%.
Under `CC1=C(c2ccc(C(=O)N3Cc4cccn4Cc4ccccc43)cc2C)C(C)CCC1` (stereo not drawn) [Example 33, (10,11-Dihydro-5H-pyrrolo[2,1-c][1,4]benzodiazepin-10-yl)-[4-(2,6-dimethyl-cyclohex-1-en-1-yl)-3-methyl-phenyl]-methanone] stands 0%; under `Cc1cc(C(=O)N2Cc3cccn3Cc3ccccc32)ccc1C1=CCCCC1C(C)(C)C` (stereo not drawn) [Example 34, (10,11-Dihydro-5H-pyrrolo[2,1-c][1,4]benzodiazepin-10-yl)-[4-(6-tert-butyl-cyclohex-1-en-1-yl)-3-methyl-phenyl]-methanone], 4%.
Turning to `Cc1cc(C(=O)N2Cc3cccn3Cc3ccccc32)ccc1C1=CCC2CCC1C2` (stereo not drawn) [Example 35, (10,11-Dihydro-5H-pyrrolo[2,1-c][1,4]benzodiazepin-10-yl)-(4-bicyclo[3.2.1]oct-2-en-2-yl-3-methyl-phenyl)-methanone], the inhibition at 0.1 µM amounted to 18%.
The figure for `Cc1cc(C(=O)N2Cc3cccn3Cc3ccccc32)ccc1C1=CCC2CC1C2(C)C` (stereo not drawn) [Example 36, (10,11-Dihydro-5H-pyrrolo[2,1-c][1,4]benzodiazepin-10-yl)-[4-(6,6-dimethyl-bicyclo[3.1.1]hept-2-en-2-yl)-3-methyl-phenyl]-methanone] is 3%; for `Cc1cc(C(=O)N2Cc3cccn3Cc3ccccc32)ccc1C1=CC(C)(C)CC(C)(C)C1` [Example 37, (10,11-Dihydro-5H-pyrrolo[2,1-c][1,4]benzodiazepin-10-yl)-[3-methyl-4-(3,3,5,5-tetramethyl-cyclohex-1-en-1-yl)-phenyl]-methanone] it is 20%.

Usually inhibition stands for the change of the read-out against control, counted positive when it falls.
